Data: patent US11319299B2, “Substituted carboxamides as inhibitors of WDR5 protein-protein binding” (PROPELLON THERAPEUTICS INC., priority 2016, dated 2022)
Where two headings read alike, the source gives them in different places.

Experiments:
[1] = tested on: H3K4 dimethylation (H3K4me2) in T24 cells; experiment: Detection of in-cell H3K4 dimethylation (AlphaLisa); format: cell-based; conditions: Homo sapiens, T-24, 120 h, five days, read-out: In vitro whole cell potency in T24 cells, H3K4Me2 (IC50)
Procedure: (iii) Detection of In-Cell H3K4 Dimethylation
T24 cells were seeded into a 96-well plate at 400 cells/well in 150 μl medium (McCoy 5A containing 10% FBS, 100 μg/ml Normocin, and 50 μg/ml Gentamycin, Invitrogen). A HP D300 digital dispenser was used to dose cells with DMSO or test compounds across a 10-point range of concentrations (high dose of 10 μM), and cultures were grown in a humidified 5% CO2 incubator at 37° C. After five days, plates were removed from incubator, media was aspirated, and the cells washed in PBS. Cell lysis, histone extraction, and detection of H3K4 dimethylation (H3K4me2) were performed using an AlphaLisa kit according to the manufacturer's instructions (Perkin Elmer). Signal was measured using an Envision plate reader.

[2] = tested on: MV4-11 cells; experiment: Cell proliferation assay (ATPlite); format: cell-based; conditions: Homo sapiens, MV4-11, 120 h; MV-411 cells, five days; read-out: In vitro whole cell potency in MV-411 cells, (IC50)
Summary of the method: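 Read-out is ATP-based luminescence (ATPlite) after 5 days of culture at 37° C under 5% CO2. Compounds were given as 10-point dilutions starting at 10 μM to MV4-11 cells, seeded at 1,000 cells/well in Alpha-MEM plus 10% FBS.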

[3] = molecular target: T1, WDR5 (Homo sapiens (Human), UniProt P61964); experiment: Surface Plasmon Resonance (SPR) assay, KD and residence time; format: binding; conditions: read-out: WDR5 binding affinity (KD)
[4] = molecular target: T1, WDR5; conditions: previous studies, J. Med. Chem. 2010, 53: 5179-5185; J. Am. Chem. Soc. 2013, 135: 669-682; read-out: Ki, binding affinity to WDR5; cited from earlier work
[5] = surface plasmon resonance (SPR) assay
[6] = surface plasmon resonance (SPR)

Compound	IC50 [1] [nM]	IC50 [2] [nM]	Kd [3, 5] [nM]	Kd [3, 6] [nM]	Ki [4] [µM]
C[C@@H]1CN(c2cc(F)c(-c3cnc(N4CCOCC4)nc3)cc2NC(=O)c2c[nH]c(=O)cc2C(F)(F)F)CCN1C [Example 6, (R)—N-(2-(3,4-dimethylpiperazin-1-yl)-4-fluoro-5-(2-morpholinopyrimidin-5-yl)phenyl)-6-oxo-4-(trifluoromethyl)-1,6-dihydropyridine-3-carboxamide]	1070	828	–	–	–
C[C@H]1CN(c2cc(F)c(-c3cnc(N4CCOCC4)nc3)cc2NC(=O)c2c[nH]c(=O)cc2C(F)(F)F)CCN1C [Example 7, (S)—N-(2-(3,4-dimethylpiperazin-1-yl)-4-fluoro-5-(2-morpholinopyrimidin-5-yl)phenyl)-6-oxo-4-(trifluoromethyl)-1,6-dihydropyridine-3-carboxamide]	166	51	–	–	–
C[C@@H]1CN(c2cc(F)c(-c3cnc(N4CCOCC4)nc3)cc2NC(=O)c2c[nH]c(=O)cc2C(F)(F)F)C[C@H](C)N1C [Example 8, N-(4-fluoro-5-(2-morpholinopyrimidin-5-yl)-2-((3R,5S)-3,4,5-trimethylpiperazin-1-yl)phenyl)-6-oxo-4-(trifluoromethyl)-1,6-dihydropyridine-3-carboxamide]	144	–	–	–	–
C[C@@H]1CN(c2cc(F)c(-c3ccc(OCC4CC4)nc3)cc2NC(=O)c2c[nH]c(=O)cc2C(F)(F)F)C[C@H](C)N1C [Example 39, N-[5-[6-(cyclopropylmethoxy)pyridin-3-yl]-4-fluoro-2-[(3S,5R)-3,4,5-trimethylpiperazin-1-yl]phenyl]-6-oxo-4-(trifluoromethyl)-1H-pyridine-3-carboxamide]	626	213	–	–	–
C[C@@H]1CN(c2cc(F)c(C3=CCCN(c4ncc(CO)cn4)C3)cc2NC(=O)c2c[nH]c(=O)cc2C(F)(F)F)C[C@H](C)N1C [Example 413, N-[4-fluoro-5-[1-[5-(hydroxymethyl)pyrimidin-2-yl]-3,6-dihydro-2H-pyridin-5-yl]-2-[(3R,5S)-3,4,5-trimethylpiperazin-1-yl]phenyl]-6-oxo-4-(trifluoromethyl)-1H-pyridine-3-carboxamide]	–	57	–	0.302	–
C[C@@H]1CN(c2cc(F)c(C3=CCCN(c4ncc(CN(C)C)cn4)C3)cc2NC(=O)c2c[nH]c(=O)cc2C(F)(F)F)C[C@H](C)N1C [Example 414, N-[5-[1-[5-[(dimethylamino)methyl]pyrimidin-2-yl]-3,6-dihydro-2H-pyridin-5-yl]-4-fluoro-2-[(3R,5S)-3,4,5-trimethylpiperazin-1-yl]phenyl]-6-oxo-4-(trifluoromethyl)-1H-pyridine-3-carboxamide]	–	8	–	0.658	–
C[C@@H]1CN(c2cc(F)c(C3=CCCN(c4ncc(CN5CCOCC5)cn4)C3)cc2NC(=O)c2c[nH]c(=O)cc2C(F)(F)F)C[C@H](C)N1C [Example 415, N-[4-fluoro-5-[1-[5-(morpholin-4-ylmethyl)pyrimidin-2-yl]-3,6-dihydro-2H-pyridin-5-yl]-2-[(3R,5S)-3,4,5-trimethylpiperazin-1-yl]phenyl]-6-oxo-4-(trifluoromethyl)-1H-pyridine-3-carboxamide]	–	17	–	1.1	–
C[C@@H]1CN(c2ncc(-c3cc(NC(=O)c4ccc(F)cc4C(F)(F)F)c(N4CCN(C)[C@@H](C)C4)cc3F)cn2)CCO1 [Example 456, 4-fluoro-N-[4-fluoro-2-[(3S)-3,4-dimethylpiperazin-1-yl]-5-[2-[(2R)-2-methylmorpholin-4-yl]pyrimidin-5-yl]phenyl]-2-(trifluoromethyl)benzamide]	–	89	–	1.08	–
C[C@@H]1CN(c2cc(F)c(C3=CCN(C(=O)OC4(C)CCC4)CC3)cc2NC(=O)c2c[nH]c(=O)cc2C(F)(F)F)C[C@H](C)N1C [Example 470, (1-methylcyclobutyl) 4-[2-fluoro-5-[[6-oxo-4-(trifluoromethyl)-1H-pyridine-3-carbonyl]amino]-4-[(3R,5S)-3,4,5-trimethylpiperazin-1-yl]phenyl]-3,6-dihydro-2H-pyridine-1-carboxylate]	–	56	–	4.27	–
C[C@@H]1CN(c2cc(F)c(C3=CCCN(C(=O)OC4(C)CCC4)C3)cc2NC(=O)c2c[nH]c(=O)cc2C(F)(F)F)C[C@H](C)N1C [Example 471, (1-methylcyclobutyl) 5-[2-fluoro-5-[[6-oxo-4-(trifluoromethyl)-1H-pyridine-3-carbonyl]amino]-4-[(3R,5S)-3,4,5-trimethylpiperazin-1-yl]phenyl]-3,6-dihydro-2H-pyridine-1-carboxylate]	–	78	–	0.494	–
C[C@@H]1CN(c2cc(F)c(C3=CCN(C(=O)OC4(C)CCC4)C3)cc2NC(=O)c2c[nH]c(=O)cc2C(F)(F)F)C[C@H](C)N1C [Example 472, (1-methylcyclobutyl) 3-[2-fluoro-5-[[6-oxo-4-(trifluoromethyl)-1H-pyridine-3-carbonyl]amino]-4-[(3R,5S)-3,4,5-trimethylpiperazin-1-yl]phenyl]-2,5-dihydropyrrole-1-carboxylate]	–	104	–	0.407	–
C[C@@H]1CN(c2cc(F)c(-c3nc(C(=O)N(C)CC4CC4)cs3)cc2NC(=O)c2c[nH]c(=O)cc2C(F)(F)F)C[C@H](C)N1C [Example 483, N-(cyclopropylmethyl)-2-[2-fluoro-5-[[6-oxo-4-(trifluoromethyl)-1H-pyridine-3-carbonyl]amino]-4-[(3R,5S)-3,4,5-trimethylpiperazin-1-yl]phenyl]-N-methyl-1,3-thiazole-4-carboxamide]	–	24	–	3.97	–
CC(C)OC(=O)N1CC=C(c2cc(NC(=O)c3c[nH]c(=O)cc3C(F)(F)F)c(N3C[C@@H](C)N(C)[C@@H](C)C3)cc2F)C1 [Example 600, Propan-2-yl 3-[2-fluoro-5-[[6-oxo-4-(trifluoromethyl)-1H-pyridine-3-carbonyl]amino]-4-[(3R,5S)-3,4,5-trimethylpiperazin-1-yl]phenyl]-2,5-dihydropyrrole-1-carboxylate]	–	52	–	0.779	–
Ac-A-R-A-NH2	–	–	–	–	120

Continued, in another order:

IC50 [1] [nM]	IC50 [2] [nM]	Kd [3, 5] [nM]	Kd [3, 6] [nM]	Compound	Ki [4] [µM]
882	749	–	–	CN1CCN(c2cc(F)c(-c3cnc(N4CCOCC4)nc3)cc2NC(=O)c2c[nH]c(=O)cc2C(F)(F)F)CC1 [Example 3, N-(4-fluoro-2-(4-methylpiperazin-1-yl)-5-(2-morpholinopyrimidin-5-yl)phenyl)-6-oxo-4-(trifluoromethyl)-1,6-dihydropyridine-3-carboxamide]	–
–	75	1.29	–	COc1cc(N2CC=C(c3cc(NC(=O)c4c[nH]c(=O)cc4C(F)(F)F)c(N4C[C@@H](C)N(C)[C@@H](C)C4)cc3F)CC2)ncn1 [Example 274, N-[4-fluoro-5-[1-(6-methoxypyrimidin-4-yl)-3,6-dihydro-2H-pyridin-4-yl]-2-[(3R,5S)-3,4,5-trimethylpiperazin-1-yl]phenyl]-6-oxo-4-(trifluoromethyl)-1H-pyridine-3-carboxamide]	–
–	31	0.095	–	C[C@@H]1CN(c2cc(F)c(C3=CCCN(c4ncccn4)C3)cc2NC(=O)c2c[nH]c(=O)cc2C(F)(F)F)C[C@H](C)N1C [Example 334, N-[4-fluoro-5-(1-pyrimidin-2-yl-3,6-dihydro-2H-pyridin-5-yl)-2-[(3R,5S)-3,4,5-trimethylpiperazin-1-yl]phenyl]-6-oxo-4-(trifluoromethyl)-1H-pyridine-3-carboxamide]	–
–	20	0.877	–	C[C@@H]1CN(c2cc(F)c(-c3ccnc(N4CCOCC4)n3)cc2NC(=O)c2c[nH]c(=O)cc2C(F)(F)F)C[C@H](C)N1C [Example 378, N-[4-fluoro-5-(2-morpholin-4-ylpyrimidin-4-yl)-2-[(3R,5S)-3,4,5-trimethylpiperazin-1-yl]phenyl]-6-oxo-4-(trifluoromethyl)-1H-pyridine-3-carboxamide]	–
–	73	–	2.66	C[C@@H]1CN(c2ccc(-c3cc(NC(=O)c4c[nH]c(=O)cc4C(F)F)c(N4C[C@@H](C)N(C)[C@@H](C)C4)cc3F)cn2)CCO1 [Example 508, 4-(difluoromethyl)-N-[4-fluoro-5-[6-[(2R)-2-methylmorpholin-4-yl]pyridin-3-yl]-2-[(3R,5S)-3,4,5-trimethylpiperazin-1-yl]phenyl]-6-oxo-1H-pyridine-3-carboxamide]	–
–	22	–	0.694	C[C@@H]1CN(c2cc(F)c(-c3csc(C(=O)N(C)CC4CC4)n3)cc2NC(=O)c2c[nH]c(=O)cc2C(F)(F)F)C[C@H](C)N1C [Example 532, N-(cyclopropylmethyl)-4-[2-fluoro-5-[[6-oxo-4-(trifluoromethyl)-1H-pyridine-3-carbonyl]amino]-4-[(3R,5S)-3,4,5-trimethylpiperazin-1-yl]phenyl]-N-methyl-1,3-thiazole-2-carboxamide]	–
